We go through 2 substances from EP2963052A2, “PEPTIDES WITH CYTOPROTECTIVE ACTIVITY” (Zamerton Holdings Limited, priority 2013, dated 2016).

For one series, the target named is T1, Annexin-V (Homo sapiens, UniProt P08758).
T1 sequence (P08758 1-320): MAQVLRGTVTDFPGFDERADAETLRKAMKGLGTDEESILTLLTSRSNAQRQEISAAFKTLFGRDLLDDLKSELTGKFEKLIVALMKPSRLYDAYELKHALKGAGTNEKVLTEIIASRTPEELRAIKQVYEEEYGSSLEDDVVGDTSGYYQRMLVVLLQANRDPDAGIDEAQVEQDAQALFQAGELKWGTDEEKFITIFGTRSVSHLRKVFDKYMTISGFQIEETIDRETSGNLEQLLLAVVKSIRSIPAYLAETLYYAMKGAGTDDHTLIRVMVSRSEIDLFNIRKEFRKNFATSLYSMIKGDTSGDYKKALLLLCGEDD
To be noted: calcium-dependent phospholipid binding; cited from earlier work.

The test system of the next series is HeLa S3 cells. As to the kind of experiment: Protective effect of peptides on apoptosis and necrosis in the presence of camptothecin (Annexin-V FITC / PI flow cytofluorimetry). The format is cell-based, human. As to conditions: HeLa cell culture, 24 hours. The source says:
(§1) The experiments to study the effect of peptides on apoptosis and necrosis involved the use of reagents in the ApoTarget Annexin-V FITC Apoptosis Kit (Invitrogen, CIIIA). In addition to Annexin-V, marked by the FITC fluorescent stain, the ApoTarget Annexin-V FITC Apoptosis Kit contains propidium iodide (PI), a dye. PI can permeate only those cells whose cytoplasmic membrane is damaged, which is a characteristic sign of an advanced stage of apoptosis or necrosis. Having permeated cells with damaged cell membrane, PI binds itself to the DNA. The «red» fluorescence of resulting complexes is identified with a flow cytofluorimeter.
(§2) Therefore, the procedure of double staining (Annexin-V FITC plus PI) and the process of flow cytofluorimetry can be used to distinguish 3 cell populations and determine their percentage relationship: 1) non-apoptotic cells (Annexin-V-negative and PI-negative), 2) cells at an early stage of apoptosis (Annexin-V-positive and PI-negative), 3) necrotic cells or cells at an advanced stage of apoptosis (Annexin-V- positive and PI- positive). An increase in the percentage of apoptotic and necrotic cells can serve as a measure of how the compounds added to the culture medium act on these processes. Camptothecin (Camptothecin, Sigma, CIIIA), which is recommended by the manufacturer, was used as control in the experiments because of its pronounced ability to induce apoptosis and necrosis of cells, especially tumor ones.
(§3) Peptide solutions in sterile PBS with concentrations of 1 mg/ml were prepared immediately before the experiments to study the peptides' effect on apoptosis and necrosis. The same solutions that were stored in sterile test tubes at +4°C were used to study the proliferation activity. Working dilutions of peptides in the cell cultivation medium were prepared on the day of each experiment. A sterile plastic 96-well plate (Corning, USA) was used for this purpose. The dilutions were prepared so that the introduction of 25 µl of each working dilution in an experimental well with cultivated cells would result in final concentrations of peptides equal to 400, 200, 100 and 50 ng/ml.
(§4) The HeLa S3 and NIH 3T3 cells were cultivated with the use of reagents manufactured by Invitrogen (USA) and plastic vials, plates, pipettes and filters of Corning (USA). The cells were cultivated in DMEM, prepared with a dry concentrate dissolved in pyrogen-free distilled water (Millipore, USA). The medium contained 10 % FBS, 2 mM of glutamine and penicillin-streptomycin (diluted according to the vendor's recommendations). HeLa S3 and NIH 3T3 were grown in vials T150 at +37 °C in the atmosphere of 5.6 % CO2. The cells were constantly maintained in the logarithmic growth phase, to this end they were passed at least 2 times a week, with trypsin used to remove cells from the walls of the culture vials. Live cells were counted in a hemacytometer after staining the suspension aliquot with trypan blue.
(§5) The HeLa S3 and NIH 3T3 cells were removed from the surface of the culture vials and counted; the concentration was moved to 10^5 cell/ml, and the resulting suspensions were put in doses of 1 ml in the wells of a 24-well plate.
(§6) Having made sure on the following day that the cells adhered to the plate's surface, the culture medium was replaced with a fresh one in each well.
(§7) Camptothecin was added in the control wells (positive control - stimulation of apoptosis and necrosis) to the final concentration of 50 µM that had been determined in preliminary experiments with the NIH 3T3 and HeLa S3 cells. 25 µl of fresh culture medium were added in the control wells (negative control), 25 µl of working peptide dilutions were added in each experimental well (each working dilution - twice), as well as camptothecin in the same final concentration. Incubation was conducted at +37 °C. […]

In another series the test system is NIH 3T3 cells. The series is described as above. It is filed as cell-based, mice. To be noted: NIH3T3 cell culture, 24 hours.
Excerpt: as §1, §2, §3, §4, §5, §6, §7

The nature of series [1]: Stability of peptides in storage in solution (HPLC analysis). As to conditions: 0.05 M ammonium acetate buffer, approx. 1 mg/ml.
Procedure: The peptides were dissolved in 0.05 M of an ammonium acetate buffer with pH 4.5 and pH 7.5 so that their concentrations achieved approximately 1 mg/ml. The solutions were sterilely filtered and kept in sterile, well-sealed vials. Upon expiration of the storage period the substances were analyzed with HPLC.
The mark [2] stands for this setting: peptide 50 ng/ml + camptothecin 50 µM.
The mark [3] stands for this setting: peptide 100 ng/ml + camptothecin 50 µM.
[4] abbreviates: peptide 200 ng/ml + camptothecin 50 µM.
The mark [5] stands for this setting: peptide 400 ng/ml + camptothecin 50 µM.

What is called Kd is the equilibrium constant for the complex coming apart. In the case of phosphatidylcholine, the Kd on Annexin-V is 0.5 nM.

For H-Leu-Asp-Glu-OH [LDE], the Apoptosis in the series on HeLa S3 cells (setting [2]) is 1%; in the series with HeLa S3 cells (setting [3]), 1.4%; in the series with HeLa S3 cells (setting [4]), 0.5%; in the series on HeLa S3 cells (setting [5]) it was 1%; in the series with NIH 3T3 cells (setting [2]), 2%; with NIH 3T3 cells (setting [3]) it was 2.5%. Further, the Apoptosis in the series on NIH 3T3 cells (setting [4]) was 1.6%; in the series with NIH 3T3 cells (setting [5]) it was 2.5%. Further, the Necrosis is on record as 2.5% in the series with HeLa S3 cells (setting [2]); 3.1% in the series on HeLa S3 cells (setting [3]); 2.2% in the series with HeLa S3 cells (setting [4]); 2.1% in the series on HeLa S3 cells (setting [5]); 3.7% in the series with NIH 3T3 cells (setting [2]); 3.8% with NIH 3T3 cells (setting [3]). The Necrosis turned out to be 3.5% in the series on NIH 3T3 cells (setting [4]) and 3.4% with NIH 3T3 cells (setting [5]). Also, the “Peptide stability in storage” value turned out to be 96.5 in series [1] (1hour, pH 4.5, 22°C); 96.5 in series [1] (1hour, pH 7.5, 22°C); 96.4 in series [1] (10 days, pH 4.5, 22°C); 96.4 in series [1] (10 days, pH 7.5, 22°C); 96.4 in series [1] (30 days, pH 4.5, 22°C); 96.4 in series [1] (30 days, pH 7.5, 22°C). For the same substance, the “Peptide stability in storage” value in series [1] (60 days, pH 4.5, 22°C) stood at 96.2; in series [1] (60 days, pH 7.5, 22°C), 96.2; in series [1] (90 days, pH 4.5, 22°C), 96.2; in series [1] (90 days, pH 7.5, 22°C), 95.6.
